What was measured:
human DPP1 = target: T1, human DPP1 (Homo sapiens, UniProt P53634); experiment: Human DPP1 Enzyme IC50 Assay; type: biochemical; details: activated human DPP1 enzyme, H-Gly-Arg-AMC substrate
T1 construct: was first proteolytically processed into its mature form using recombinant human cathepsin L; purchased R&D Systems
Description: Recombinant human DPP1 enzyme (R&D Systems; Minneapolis, MN) was first proteolytically processed into its mature form using recombinant human cathepsin L (R&D Systems) in a buffer consisting of 20 mM citric acid pH 4.5, 150 mM NaCl, 1 mM EDTA and 10 mM DTT. Alternatively, a crude lysate of HL-60 cells (ATCC; Manassas, VA) is used as a source of human DPP1 enzyme in the assay. Lysate was prepared in 1% Triton X-100 in PBS at a concentration of 20,000 live cells per μL of lysis buffer and centrifuged at 16,000×g for 10 minutes at 4° C., after which supernatant was collected and flash-frozen in liquid nitrogen.
Test articles were applied to activated human DPP1 enzyme in Assay Buffer (25 mM MES pH 6.0, 50 mM NaCl, 5 mM DTT) in a total reaction volume of 125 μL. 25 μL of compound in Assay Buffer plus 5% DMSO was first added to 50 μL of activated human DPP1 enzyme at a concentration of 1 ng/μL and allowed to pre-incubate for 10 minutes at 37° C. after which 50 μL of 1000 μM H-Gly-Arg-AMC substrate (Bachem; St. Torrance, CA) was added, giving final substrate concentration of 400 μM and a final DMSO concentration of 1%. Substrate cleavage was measured for 90 minutes at 37° C., with fluorescence at Excitation/Emission 350/450 nm measured every 5 minutes. DPP1 concentration was interpolated based on its activity relative to a standard curve of activated human recombinant DPP1 enzyme. IC50 values for each compound were calculated via the XLFit (IDBS Version 5.3.1.3) Add-On to Microsoft Excel using the four parameter fit equation y=(A+ ((B−A)/(1+ ((C/x)^D)))), which appears as equation number 205 (4 Parameter Logistic Model or Sigmoidal Dose-Response Model) in XLFit. Default constraints were used for each Parameter.

mouse DPP1 = target: T2, mouse DPP1 (Mus musculus, UniProt P97821); experiment: Mouse DPP1 Enzyme IC50 Assay; type: biochemical; details: active mouse DPP1 enzyme, H-Gly-Arg-AMC substrate
T2 construct: Test articles were applied to active mouse DPP1 enzyme; purchased R&D Systems
Description: Test articles were applied to active mouse DPP1 enzyme (R&D Systems; Minneapolis, MN) in Assay Buffer (50 mM MES pH 5.5, 50 mM NaCl, 5 mM DTT) in a total reaction volume of 125 μL. 25 μL of compound in Assay Buffer plus 5% DMSO was first added to 50 μL of active mouse DPP1 enzyme at a concentration of […] and allowed to pre-incubate for 10 minutes at 37° C. after which 50 μL of 1000 μM H-Gly-Arg-AMC substrate (Bachem; St. Torrance, CA) was added, giving final substrate concentration of 400 μM and a final DMSO concentration of 1%. Substrate cleavage was measured for 90 minutes at 37° C., with fluorescence at Excitation/Emission 350/450 nm measured every 5 minutes. DPP1 concentration was interpolated based on its activity relative to a standard curve of recombinant active mouse DPP1 enzyme. IC50 values for each compound were calculated via the XLFit (IDBS Version 5.3.1.3) Add-On to Microsoft Excel using the four parameter fit equation y= (A+ ((B−A)/(1+ ((C/x)^D)))), which appears as equation number 205 (4 Parameter Logistic Model or Sigmoidal Dose-Response Model) in XLFit. Default constraints were used for each Parameter. IC50 was defined as the compound concentration at which 50% of enzyme activity was inhibited when compared to the no-compound control.

T2 sequence (P97821 25-134 limits assumed): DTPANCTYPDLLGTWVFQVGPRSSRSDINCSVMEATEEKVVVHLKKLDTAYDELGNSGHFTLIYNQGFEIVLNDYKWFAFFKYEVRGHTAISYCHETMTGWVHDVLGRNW
T2 sequence (P97821 231-393 limits assumed): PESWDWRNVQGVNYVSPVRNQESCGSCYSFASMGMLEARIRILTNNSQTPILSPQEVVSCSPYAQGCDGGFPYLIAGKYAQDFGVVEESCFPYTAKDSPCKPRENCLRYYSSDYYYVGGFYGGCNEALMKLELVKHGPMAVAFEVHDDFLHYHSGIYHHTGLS
T2 sequence (P97821 394-462 limits assumed): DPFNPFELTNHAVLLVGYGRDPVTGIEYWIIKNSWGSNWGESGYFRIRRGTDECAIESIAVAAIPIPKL
T1 sequence (P53634 25-134 limits assumed): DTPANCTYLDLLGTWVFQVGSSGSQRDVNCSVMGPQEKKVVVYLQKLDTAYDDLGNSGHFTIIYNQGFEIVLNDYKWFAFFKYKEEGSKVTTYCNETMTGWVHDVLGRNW
T1 sequence (P53634 231-394 limits assumed): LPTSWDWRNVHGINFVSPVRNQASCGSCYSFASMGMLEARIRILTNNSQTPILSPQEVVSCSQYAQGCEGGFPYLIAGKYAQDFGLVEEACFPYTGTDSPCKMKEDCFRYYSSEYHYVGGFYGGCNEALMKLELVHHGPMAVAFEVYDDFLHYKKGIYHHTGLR
T1 sequence (P53634 395-463 limits assumed): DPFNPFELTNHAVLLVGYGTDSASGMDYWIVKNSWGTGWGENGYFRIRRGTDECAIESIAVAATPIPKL

Row | IC50 (human DPP1) [nM] | IC50 (mouse DPP1) [nM] | Structure (SMILES)
1 | 1.03 ± 0.1 | 0.7 ± 0.2 | COC1CNC[C@@H](C(=O)N[C@H](C#N)Cc2ccc(-c3ccc4oc(=O)n(C)c4c3)cc2)OC1 (mixture of isomers) [INSM-202, (6-rac)-(2S)—N-[(1S)-1-cyano-2-[4-(3-methyl-2-oxo-2,3-dihydro-1,3-benzoxazol-5-yl)phenyl]ethyl]-6-methoxy-1,4-oxazepane-2-carboxamide]
2 | 2.03 ± 0.2 | 2.3 ± 0.4 | Cn1c(=O)oc2ccc(-c3ccc(C[C@@H](C#N)NC(=O)[C@@H]4CNC[C@H](O)CO4)cc3)cc21 (single isomer, unassigned) [INSM-201, (2S,6S*)—N-[(1S)-1-cyano-2-[4-(3-methyl-2-oxo-2,3-dihydro-1,3-benzoxazol-5-yl)phenyl]ethyl]-6-hydroxy-1,4-oxazepane-2-carboxamide]
3 | 0.6 ± 0.1 | 0.3 ± 0.1 | COC1CNC[C@@H](C(=O)N[C@H](C#N)Cc2ccc(-c3ccc4oc(=O)n(C)c4c3)cc2)OC1 (single isomer, unassigned) [INSM-203, (2S,6R*)—N-[(1S)-1-cyano-2-[4-(3-methyl-2-oxo-2,3-dihydro-1,3-benzoxazol-5-yl)phenyl]ethyl]-6-methoxy-1,4-oxazepane-2-carboxamide]

— patent publication US20260242365A1, “USES OF CERTAIN 1,4-OXAZEPANE-2-CARBOXAMIDES AS DPP1 INHIBITORS” (Insmed Incorporated, priority 2023, published 2026)
